# From patent publication US5599839A, “Antiviral composition” (The United States of America as represented by the …, priority 1995, dated 1997)
# Where two headings read alike, the source gives them in different places.
# How the values were obtained:
# C3H10T1/2 cells [1] = experiment: Release of [3H]arachidonic acid metabolites in C3H10T1/2 cells; assay type: cell-based; settings: Mus musculus, C3H 10T1/2, read-out: Half-maximally effective concentration, release of arachidonic acid metabolites
# Description: (§1) Well-characterized biological responses to the phorbol esters include inhibition of binding of epidermal growth factor and release of arachidonic acid metabolites [Dell'Aquila et al.: Cancer Res. 48:3702-3708, (1988)].
# CEM-SS cells [2] = assay type: cell-based, human
# Description: (§2) Cancer Inst. […] Cancer Inst. 81:1254-1258, (1989)] but with several modifications.
# (§3) Philadelphia: Lippincott, 1988, pp. 305-317; Weislow et al.: J. Nat. Cancer Inst. […] Cancer Inst. 81:1254-1258, (1989)].
# [3] = test system: HIV-1 (RF variant) in CEM-SS cells; experiment: XTT-tetrazolium anti-HIV assay (HIV-1-infected CEM-SS cells); assay type: cell-based; settings: 50 nM
# Description: as §2, §3
# protein kinase C = experiment: [3H]PDBu binding to partially purified protein kinase C; settings: read-out: Ki, competition of [3H]PDBu binding to protein kinase C; for comparison; mean±range, 2 experiments
# Procedure: (§4) Incubation was for 30 min at 37° C., after which the cells were chilled, an aliquot removed to determine total counts, and bound counts determined by filtration.
# CEM-SS cells [4] = assay type: binding, human; settings: for Ki: read-out: Ki, inhibition of [3H]PDBu binding to CEM cells
# Procedure: as §4
# Binding affinities of phorbol esters in cells are typically lower than those obtained with reconstituted protein kinase C [Blumberg et al.: in Mechanism of Tumor Promotion, Vol. 3. Tumor Promotion and Cocarcinogenesis in vitro, (Slaga T. J., ed.) Boca Raton, Fla.: CRC Press, 1984, pp. 143-184], presumably reflecting the role of cellular calcium and phospholipid composition on binding [Konig et al.: J. Cell. Biochem. 7:255-265, (1985)]. […] The usual binding protocol were cells omits serum, because of reportedly variable effects of serum on binding [Blumberg et al.: in Mechanism of Tumor Promotion, Vol. 3. Tumor Promotion and Cocarcinogenesis in vitro, (Slaga T. J., ed.) Boca Raton, Fla.: CRC Press, 1984, pp. 143-184].
# in vitro = settings: human, cem-ss cells
# Procedure: (§5) Trypan blue dye exclusion was employed for secondary evaluation of drug toxicity and antiviral protection over time. A 50 μl aliquot of cells was removed from each test well and mixed with 100 μl of 0.4% trypan blue. The percentage of viable cells was determined microscopically by direct hemocytometer counts.
# CEM-SS cells [5] = experiment: in vitro; settings: HIV-1-infected, prostratin-treated (FIG. 4)
# Procedure: as §5
# C3H10T1/2 cells [6] = experiment: Inhibition of 125I-epidermal growth factor binding in C3H10T1/2 cells; assay type: cell-based
# Description: as §1
# HIV-1 p24 = experiment: microbe, parasite or virus in culture; settings: Human immunodeficiency virus 1, 144 h, read-out: Concentration at which p24 viral antigen production is strikingly inhibited (as low as)
# Procedure: (§6) The XTT-tetrazolium anti-HIV assay was performed on crude extracts, chromatographic fractions and pure compounds as previously described [Weislow et al.: J. Nat. Cancer Inst. 81:577-586, (1989) and Gustafson et al.: J. Nat. Cancer Inst. 81:1254-1258, (1989)] but with several modifications. The human T-lymphoblastic cell line CEM-SS [Nara et al.: AIDS Res. Hum. […] Concentrated pellets of CEM-SS cells were incubated with the free virus for 1 hour at 37° C. The cells were then diluted and inoculated into round-bottomed 96-well microtiter plates (Corning) at a density of 5000 cells/well. Test compounds and the appropriate controls were then added to the wells, and the plates were incubated for 6 days. At the end of the incubation period cell growth parameters and HIV-1 activities were determined.
# (§7) Aliquots of supernatant fluid from the test wells of the tetrazolium assay were removed prior to the time of XTT addition for quantitation of residual infectious virus using the syncytium assay described by Nara et al. [Nara et al.: AIDS Res. Hum. Retroviruses 3:283:302, (1987)].
# [7] = test system: HIV-1 (RF variant) in CEM-SS cells; experiment: microbe, parasite or virus in culture; settings: Human immunodeficiency virus 1, CEM-SS, 144 h, read-out: Concentration at which syncytium formation (infectious virions) is strikingly inhibited (as low as)
# Procedure: as §6, §7
# [8] = cited from earlier work
compound,measurement,setting,value
"CCCC(=O)O[C@@H]1[C@@H](C)[C@@]2(O)[C@@H](C=C(CO)C[C@]3(O)C(=O)C(C)=C[C@@H]23)[C@@H]2C(C)(C)[C@]12OC(=O)CCC [PDBu, phorbol 12,13-dibutyrate, reference compound]",EC50,C3H10T1/2 cells [1],0.024 µM
"CCCCCCCCCCCCCC(=O)O[C@@H]1[C@@H](C)[C@@]2(O)[C@@H](C=C(CO)C[C@]3(O)C(=O)C(C)=C[C@@H]23)[C@@H]2C(C)(C)[C@]12OC(C)=O [PMA, phorbol 12-myristate 13-acetate, reference compound]",Cytostatic effect,CEM-SS cells [2]; 50 nM,cytostatic
same,Protection against HIV-1,[3],protective against HIV-1
CC1=C[C@H]2[C@@]3(O)[C@H](C)C[C@]4(OC(=O)C(C)C)[C@H]([C@@H]3C=C(CO)C[C@]2(O)C1=O)C4(C)C [12-deoxyphorbol 13-isobutyrate],Ki,protein kinase C,0.0021 ± 0.0001 µM
"[^3 H]phorbol 12,13-dibutyrate [[^3 H]PDBu, reference compound]",Bmax in CEM-SS cells,"CEM-SS cells [4]; mean±range, 2 experiments",1.2±0.1 pmol/mg protein
same,Kd,"CEM-SS cells [4]; mean±range, 2 experiments, read-out: Binding affinity in CEM-SS cells",0.0049 ± 0.0008 µM
CC(=O)O[C@@]12C[C@@H](C)[C@@]3(O)[C@@H](C=C(CO)C[C@]4(O)C(=O)C(C)=C[C@@H]34)[C@@H]1C2(C)C [prostratin],Ki,"CEM-SS cells [4]; 10% fetal calf serum, one experiment",0.19 µM
same,Ki,"CEM-SS cells [4]; without serum, 30 min at 37° C, mean±range, 2 experiments",0.21 ± 0.03 µM
same,viability,in vitro,> 90%
same,"Cell viability, infected cultures",CEM-SS cells [5],greater than 90%
same,Growth-inhibitory (cytostatic) effect on uninfected control cultures,"CEM-SS cells [2]; 1.0-200 μg/ml, uninfected CEM-SS, 6 days","marked growth-inhibitory, or cytostatic, effect"
same,Inhibition of binding of epidermal growth factor,C3H10T1/2 cells [6],induces both of these responses
same,EC50,C3H10T1/2 cells [1],1.1 µM
same,minimal effective concentration,HIV-1 p24,≤ 1 µg/mL
same,minimal effective concentration,[7],≤ 1 µg/mL
same,Tumor promoting activity,"[8]; general statement, no test described",substantially lacks tumor promoting activity
same,Tumor promoting activity,"[8]; reported, Zayed et al. 1977",not a tumor promoter
